These are literature values, as cited in patent publication US20120171270A1, “DUAL ACTION ORGANIC FORMULATION TO CONTROL TWO STAGES OF INSECT PESTS” (priority 2010, published 2012).

The subject of series [1] is gypsy moth larvae.
The subject of series [2] is gypsy moth larvae. The settings on record: 3-day exposure; 13-day evaluation; 2nd instar larvae; red oak leaf disks.
The test system of series [3] is gypsy moth larvae. To be noted: 16 hours after a 2 minute crawling exposure to glass coated with a 4 mg/litre spinosad solution.
Series [4] deals with mammalian and avian species. The settings on record: in vivo.

For the molecule spinosad, the “population reduction at low application rate” value in the series on gypsy moth larvae [1] (application rate of 0.75 mg/litre) is listed as “large population reductions”. Also, the “concentrations that effectively controlled larvae” value in the series with gypsy moth larvae [1] (applied to foliage to run-off, 2nd instar larvae, laboratory and field) was 3 ± 50 mg/L. Besides, the larval population reduction in the series with gypsy moth larvae [1] (at 3 to 50 mg/litre applied to run-off) is given as 95±100%. Also, in the series on gypsy moth larvae [1] (in vivo), the “toxicity in the laboratory, efficacy and persistence in the field versus permethrin” value is on record as “comparable to those achieved with permethrin”. Further, in the series with gypsy moth larvae [2], the LC50 is given as 0.0015 mg AI/cm2. For the same molecule, in the series on gypsy moth larvae [3], the treated larvae paralyzed is listed as 50%. Moreover, the “toxicity to mammalian and avian species” value in series [4] is listed as “little or no toxicity”.

As for `CCCCCCCCCC[C@H]1O[C@H]1CCCCC(C)C` [disparlure], the “mating in low-density populations at lower doses” value in the series on gypsy moth (15, 6, and 3 grams per acre) is “can be suppressed”. In the series with gypsy moth (30 grams per acre), the “mating in low-density populations” value is “suppresses mating”.
